These results are taken from the CATMoS acute toxicity set (Mansouri et al. 2021).

A short description of the series: GHS categories as the set defines them, by LD50: 1 up to 5, 2 up to 50, 3 up to 300, 4 up to 2000, 5 above 2000 mg/kg. The note with it: rat; in vivo; po.
Compound `CCN(Cc1cccc(S(=O)(=O)O)c1)c1ccc(C(=C2C=CC(=[N+](CC)Cc3cccc(S(=O)(=O)O)c3)C=C2)c2ccccc2S(=O)(=O)[O-])cc1` yielded a GHS category of 5. In the case of `CCC(=O)O[C@]1(C(C)=O)CC[C@H]2[C@@H]3CCC4=CC(=O)C=C[C@]4(C)[C@H]3[C@@H](O)C[C@@]21C`, the GHS category came to 5.

The compound `Cc1cc(=O)nc(C(C)(C)O)[nH]1` had a GHS category of 5.

The compound `CCCCC(CC)COP(=O)(Oc1ccccc1)Oc1ccccc1` (centres undefined) gave a GHS category of 5. In the case of `CCC(CC)CC1(C(=O)O)CCCCC1` it was 4; in that of `O=c1nc2nc[nH]n2c(COCc2ccccc2)c1Cc1ccc(-c2ccccc2-c2nn[nH]n2)cc1`, 4; in that of `O=C1CN=C(c2ccccc2Cl)c2cc([N+](=O)[O-])ccc2N1`, 5. In the case of `CCCCNC(=O)CC[C@H](NC(=O)C(CC)CCCC)C(=O)NCCCC` (some centres undefined) it was 5; in that of `Cc1cccc2ncc(C(=O)Nc3ccc(Cl)cc3)c(=O)n12`, 3; in that of `O=C1c2ccccc2OC1c1ccccc1` (centres undefined), 5.

With `O=C(COCCOCCOCC(=O)Nc1c(I)cc(I)c(C(=O)O)c1I)Nc1c(I)cc(I)c(C(=O)O)c1I`, the GHS category worked out at 5.

In the case of `O=C(O)CCn1nc2ccccn2c1=O`, the GHS category was 5.

`CC(C)(C)c1cc(CCC(=O)OCC(COC(=O)CCc2cc(C(C)(C)C)c(O)c(C(C)(C)C)c2)(COC(=O)CCc2cc(C(C)(C)C)c(O)c(C(C)(C)C)c2)COC(=O)CCc2cc(C(C)(C)C)c(O)c(C(C)(C)C)c2)cc(C(C)(C)C)c1O` gave a GHS category of 5. In the case of `FC(F)(F)c1cccc(-n2nc(OCCN3CCCCCC3)c3cccnc32)c1` it was 4. Compound `Cc1ccc(I)cc1Cc1ccc(-c2ccc(F)cc2)s1` displayed a GHS category of 5. `CCOC(=O)C(=O)Nc1cccc(OC)c1C(N)=O`: the GHS category was 5. In the case of `C[C@]12CC[C@H]3[C@@H](CCC4=CC(=O)C=C[C@@]43C)[C@@H]1CC[C@H]2O` it was 5; in that of `CC1(C)S[C@@H]2[C@H](NC(=O)C(C(=O)O)c3ccccc3)C(=O)N2[C@H]1C(=O)O` (some centres undefined), 5. The same measure for `C=CC(C)(O)CC/C=C(\C)CC/C=C(\C)CCC=C(C)C` (centres undefined): 5. In the case of `COc1ccccc1N1CCN(CC(O)COc2cccc3ccccc23)CC1` (centres undefined) it was 5. The compound `C[C@@H]1C[C@H]2[C@@H]3CCC4=CC(=O)C=C[C@]4(C)[C@@]3(F)[C@@H](O)C[C@]2(C)[C@@]1(O)C(=O)CO` displayed a GHS category of 5. The same measure for `CC1CN(S(=O)(=O)c2cccc3cnccc23)CCN1` (centres undefined): 4; for `Cc1c(C)c2c(c(C)c1OC(=O)C(C)(C)Oc1ccc(Cl)cc1)CC[C@@](C)(CCC[C@H](C)CCC[C@H](C)CCCC(C)C)O2`: 5; for `C=CCCCCCCCCC=O`: 5. The same measure for `CC(C)COC(=O)Cc1ccccc1`: 5. Turning to `CC(O)C(O)C(=O)C(O)C(O)Oc1cccc2c1C(=O)c1c(O)cc(C(=O)O)cc1C2C1c2cc(C(=O)O)cc(O)c2C(=O)c2c(OC(O)C(O)C(=O)C(O)C(C)O)cccc21` (centres undefined), the GHS category amounted to 5.

In turn, `CCC(=O)C(C)CO` (centres undefined) displayed a GHS category of 5. In the case of `CCS(=O)(=O)c1nc2ccccn2c1S(=O)(=O)NC(=O)Nc1nc(OC)cc(OC)n1` it was 5; in that of `CCC(C(=O)NC(=O)NC(C)=O)c1ccccc1` (centres undefined), 5. The same measure for `CC=CCCC1CCCC(=O)O1` (centres undefined): 5. Take `CC(C#N)c1cccc(C(=O)Cl)c1` (centres undefined): the GHS category is 5. `CC(C)(C)c1cc(Cc2cc(C(C)(C)C)c(O)c(C(C)(C)C)c2)cc(C(C)(C)C)c1O`: the GHS category is 5. In the case of `CC(C)CCC[C@@H](C)[C@H]1CC[C@H]2[C@@H]3CC[C@H]4C[C@H](O)CC[C@]4(C)[C@H]3CC[C@]12C` it was 4; in that of `CCS(=O)(=O)c1cccnc1S(=O)(=O)NC(=O)Nc1nc(OC)cc(OC)n1`, 5; in that of `C=C1C2CCC(C2)C1(C)C` (centres undefined), 5. In turn, `O=C(O)c1cc(Br)nn1-c1ncccc1Cl` gave a GHS category of 5. Take `CCC(C)(C)NC(=O)c1cnc2cccc(C)n2c1=O`: the GHS category was 3. The compound `CN(CC1(C)CCCO1)S(=O)(=O)c1ccc(Cl)c(S(N)(=O)=O)c1` (centres undefined) gave a GHS category of 5.

`CN1CC(c2ccn(C)n2)CC2c3cccc4[nH]cc(c34)CC21` (centres undefined) returned a GHS category of 4. In the case of `COC1(C)CCCCCCCCCCC1` it was 5; in that of `CSC(C)(C)SC`, 5. In turn, `CCOC(=O)OCCOc1cc(O)c2c(c1N)C(=O)c1ccccc1C2=O` had a GHS category of 5. The same measure for `COC(=O)CCCCCCCCC(=O)OC`: 5; for `CC/C=C\CCC1(C)CCC(=O)O1` (centres undefined): 5; for `O=S(=O)(O)Oc1ccc(C(c2ccc(O)cc2)c2ccccn2)cc1` (centres undefined): 5. In the case of `CC(C)Br` it was 5; in that of `CCCCC(CC)COC(=O)c1ccccc1O` (centres undefined), 5; in that of `CC(C)OC(=O)C(C)(C)Oc1ccc(C(=O)c2ccc(Cl)cc2)cc1`, 5.

`COC[C@H]1CO[C@@](Cn2ccnc2)(c2cc3ccccc3o2)O1` gave a GHS category of 4.

Compound `COc1nc(Nc2ccccc2)nc(Nc2ccc(C=Cc3ccc(Nc4nc(Nc5ccccc5)nc(OC)n4)cc3S(=O)(=O)O)c(S(=O)(=O)O)c2)n1` returned a GHS category of 5. On to `FC(Cl)C(F)(F)C(F)(F)Cl` (centres undefined), for which the GHS category turned out to be 5. The compound `CCC1(CC)COP(=S)(N(SN(C)C(=O)ON=C(C)SC)C2CCCCC2)OC1` registered a GHS category of 5.

Consider `CC(C#N)c1cccc(C(=O)c2ccccc2)c1` (centres undefined), for which the GHS category is 4.

Regarding `Nc1ccn([C@@H]2O[C@H](CO)[C@@H](O)[C@@H]2O)c(=O)n1`, the GHS category turned out to be 5.

In turn, `CC(C)(C)OOC(C)(C)C` gave a GHS category of 5. In the case of `NC(CSCC(=O)O)C(=O)O` (centres undefined) it was 5.

Compound `O=C1c2c(Cl)c(Cl)c(Cl)c(Cl)c2C2=Nc3cccc4cccc(c34)N12` gave a GHS category of 5. The same measure for `CS(=O)(=O)c1ccc(C(=O)C2C(=O)CCCC2=O)c([N+](=O)[O-])c1`: 5; for `C[C@]12CC[C@H]3[C@@H](CC[C@@]45O[C@@H]4C(O)=C(C#N)C[C@]35C)[C@@H]1CC[C@@H]2O`: 5. As for `Nc1cccc2c(S(=O)(=O)O)cccc12`, the GHS category is listed as 5.

Compound `CCCCCCCCCCCCCCCCCNP1(=S)OCc2cc([N+](=O)[O-])ccc2O1` (centres undefined) showed a GHS category of 3.

With `CC(=O)OCCCCCCCCCOC(C)=O`, the GHS category is 5.

Take `CC(C)OC(=O)C(C)N(C(=O)c1ccccc1)c1ccc(F)c(Cl)c1` (centres undefined): the GHS category amounted to 5.

Take `c1ccc2oc(C3(Cn4cncn4)OCCO3)cc2c1`: the GHS category amounted to 4. Take `CCCc1c(Cc2ccc(-c3ccccc3-c3nn[nH]n3)cc2)c(=O)nc2nc(N)[nH]n12`: the GHS category was 4. `Brc1ccc(N/C(=N/C2CCCCC2)c2ccccc2)cc1` yielded a GHS category of 5. The same measure for `CCCCOC(=O)CC(C)C`: 5.

As to `CC(C)CCCCCCCCCCCCCCCOC(=O)CCCCCCCCCCCCCCC(C)C`, the GHS category came out at 5. In the case of `c1ccc(CN(Cc2ccccc2)Sc2nc3ccccc3s2)cc1` it was 5.

Compound `CC[C@@]12C=C(C(=O)OC3OC(=O)c4ccccc43)n3c4c(c5ccccc53)CCN(CCC1)[C@H]42` (some centres undefined) had a GHS category of 5. The same measure for `CC(C)=CCCC(C)CCOC(=O)Cc1ccccc1` (centres undefined): 5. In the case of `COC(=O)c1ccc(OC)cc1` it was 5; in that of `CCOC(=O)c1c(N)sc2c1CCN(Cc1ccccc1)C2`, 5. `CCOC(=O)c1cc(=O)c2c(OCC(O)COc3cccc4oc(C(=O)OCC)cc(=O)c34)cccc2o1`: the GHS category was determined as 5. The same measure for `C/C1=C\[C@@H](C)C/C=C/[C@H]2[C@@H]3O[C@]3(C)[C@@H](C)[C@H]3[C@H](Cc4c[nH]c5ccccc45)NC(=O)[C@]32C(=O)/C=C/C(=O)[C@@H]1O`: 4. The same measure for `C[N+](C)(C)NCCC(=O)[O-]`: 5; for `O=C1NC(=O)c2ccc3c4ccc5c6c(ccc(c7ccc1c2c73)c64)C(=O)NC5=O`: 5.

`CCCNC(=O)c1sc(-c2ccc(OC)c(OC)c2)nc1C` displayed a GHS category of 5. In the case of `CCCCC(CC)COC(=O)CCCCCCCC(=O)OCC(CC)CCCC` (centres undefined) it was 5; in that of `O=C(O)c1cc(O)ccc1Nc1ccc(O)c(C(F)(F)F)c1`, 4.

In the case of `CCC1OC(=O)C(C)C(OC2CC(C)(OC)C(O)C(C)O2)C(C)C(OC2OC(C)CC(N(C)C)C2O)C(C)(O)CC(C)(F)C(=O)C(C)C(O)C1(C)O` (centres undefined), the GHS category is 5. The same measure for `OC[C@@H](O)[C@@H](O[C@@H]1O[C@H](CO)[C@H](O)[C@H](O)[C@H]1O)[C@H](O)[C@@H](O)CO`: 5.

Regarding `CCCC1(C)COC(Cn2cncn2)(c2cc3ccccc3o2)OC1` (centres undefined), the GHS category is 4.

Take `CCOP(OCC)c1ccccc1`: the GHS category worked out at 5.

Consider `CC1CC(C)C(C)CC1C` (centres undefined), for which the GHS category is given as 5.

`NCCS(=O)(=O)O` returned a GHS category of 5.

Consider `CCNc1nc(Cl)nc(NCC(=O)O)n1`, for which the GHS category was 5. For the compound `C[Si](Cl)(Cl)c1ccccc1`, the GHS category was determined as 3. In the case of `CCn1nnnc1CSCCC(N)=O` it was 4.
